Entries after “also recorded” stand apart in the source; their conditions may differ.
Tests used:
[1] = tested on: circulating organ toxicity biomarkers; experiment: In vivo toxicity: circulating markers of organ toxicities; set-up: species or system mice; details: serum/plasma at end of study, 10 mg/kg oral gavage, N = 9-10
Pyk2 kinase = Pyk2 kinase (Homo sapiens, UniProt Q14289); experiment: Pyk2 kinase activity assay; assay type: biochemical; details: for Pyk2 kinase inhibitory effect (in words): kinase inhibitory assay
skin lesions = experiment: Skin lesions / adverse side effects in mice during the in vivo study; set-up: species or system C57BL/6 female mice; details: 10 mg/kg oral gavage 5 times per week
GC-induced bone loss = details: murine model of GC excess; previous studies; cited from earlier work

Sequence of Pyk2 kinase (Q14289 whole entry): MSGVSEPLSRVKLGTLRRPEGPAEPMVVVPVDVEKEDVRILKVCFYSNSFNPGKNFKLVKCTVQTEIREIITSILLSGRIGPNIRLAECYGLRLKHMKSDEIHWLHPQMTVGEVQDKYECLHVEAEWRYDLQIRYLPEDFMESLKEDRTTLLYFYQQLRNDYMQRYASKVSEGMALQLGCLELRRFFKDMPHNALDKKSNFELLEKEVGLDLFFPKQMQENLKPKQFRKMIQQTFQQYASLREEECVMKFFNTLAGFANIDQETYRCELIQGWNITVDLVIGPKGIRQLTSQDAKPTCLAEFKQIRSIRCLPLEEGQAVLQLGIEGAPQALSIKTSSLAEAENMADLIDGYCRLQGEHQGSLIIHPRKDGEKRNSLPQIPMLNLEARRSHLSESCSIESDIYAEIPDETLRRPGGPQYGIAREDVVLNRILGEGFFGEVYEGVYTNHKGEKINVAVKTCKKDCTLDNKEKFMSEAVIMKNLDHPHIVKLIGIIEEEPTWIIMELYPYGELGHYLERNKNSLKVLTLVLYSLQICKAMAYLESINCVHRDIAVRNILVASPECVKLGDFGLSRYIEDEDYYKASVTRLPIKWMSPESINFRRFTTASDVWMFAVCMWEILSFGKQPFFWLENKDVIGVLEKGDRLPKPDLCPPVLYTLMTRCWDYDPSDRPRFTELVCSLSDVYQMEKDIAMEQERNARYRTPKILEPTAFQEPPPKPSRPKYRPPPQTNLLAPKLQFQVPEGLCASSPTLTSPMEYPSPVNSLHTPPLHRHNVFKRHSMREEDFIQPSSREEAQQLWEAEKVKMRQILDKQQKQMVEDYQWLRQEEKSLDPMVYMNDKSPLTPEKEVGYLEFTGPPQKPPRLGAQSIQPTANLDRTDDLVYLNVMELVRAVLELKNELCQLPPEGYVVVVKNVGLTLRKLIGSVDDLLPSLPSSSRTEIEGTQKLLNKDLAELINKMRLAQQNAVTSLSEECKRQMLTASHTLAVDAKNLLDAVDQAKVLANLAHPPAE

| Structure (SMILES) | Circulating organ toxicity biomarkers vs control groups ([1]; 10 mg/kg) | Pyk2 kinase inhibitory effect (in words) (Pyk2 kinase) | Skin lesions / adverse side effects (in words) (skin lesions) | Circulating organ toxicity biomarkers vs control groups [1] | IC50 (Pyk2 kinase) [nM] | Prevention of GC-induced bone loss (GC-induced bone loss) |
| --- | --- | --- | --- | --- | --- | --- |
| CNC(=O)c1ccccc1Nc1nc(Nc2ccc(NC(=O)CCCCC(=O)NCCCC(O)(P(=O)(O)O)P(=O)(O)O)cc2OC)ncc1Cl [BT-Amide, (4-(6-((4-((5-Chloro-4-((2-(methylcarbamoyl)phenyl)amino)pyrimidin-2-yl)amino)-3-methoxyphenyl)amino)-6-oxohexanamido)-1-hydroxybutane-1,1-diyl)bis(phosphonic Acid)] | no significant difference; also recorded: None of the markers were significantly elevated above control levels | moderate inhibitory effects | no adverse side effects were observed | – | – | – |
| CNC(=O)c1ccccc1Nc1nc(Nc2ccc(N3CCC(OC(=O)CCCCC(=O)NCCCC(O)(P(=O)(O)O)P(=O)(O)O)CC3)cc2OC)ncc1Cl [BT-Ester, (4-(6-((1-(4-((5-Chloro-4-((2-(methylcarbamoyl)phenyl)amino)pyrimidin-2-yl)amino)-3-methoxyphenyl)piperidin-4-yl)oxy)-6-oxohexanamido)-1-hydroxybutane-1,1-diyl)bis(phosphonic Acid)] | – | low inhibition | did not develop skin lesions | None of the markers were significantly elevated above control levels | 119 ± 41 | – |
| CN(c1ccccc1CNc1nc(Nc2ccc3c(c2)CC(=O)N3)ncc1C(F)(F)F)S(C)(=O)=O [PF-431396] | – | – | – | – | – | prevents GC-induced bone loss |
